Data from US20260115331A1, “PET IMAGING OF BACTERIAL INFECTION WITH A PET PROBE” (Mayo Foundation for Medical Education and Research, priority 2022, published 2026).

Test system: E coli
Test: Biodistribution in lung infected mice (E. coli) at 120 min post injection
Format: in vivo
[1] = n = 3, 2 h post infection with E coli

O=P(O)(O)[O][Ga]1[O]P(=O)(O)[O]1 [[^68Ga]Ga-H3P2O8, [^68Ga]Ga-hydrogen bisphosphate]
SUV ± STD, Adipose [1]: 0.85 ± 0.64 SUV | SUV ± STD, Bladder [1]: 3.11 ± 2.62 SUV | SUV ± STD, Blood [1]: 2.09 ± 1.31 SUV | SUV ± STD, Bone [1]: 2.70 ± 0.43 SUV | SUV ± STD, Brain [1]: 0.05 ± 0.01 SUV | SUV ± STD, Cecum [1]: 1.61 ± 1.29 SUV | SUV ± STD, Eye [1]: 1.42 ± 1.91 SUV | SUV ± STD, Feces [1]: 1.39 ± 1.10 SUV | SUV ± STD, Gut [1]: 1.93 ± 0.40 SUV | SUV ± STD, Heart [1]: 0.73 ± 0.07 SUV | SUV ± STD, Kidney-1 [1]: 0.92 ± 0.24 SUV | SUV ± STD, Kidney-2 [1]: 1.10 ± 0.09 SUV | SUV ± STD, Liver [1]: 0.86 ± 0.08 SUV | SUV ± STD, Lung-1 [1]: 2.98 ± 1.02 SUV | SUV ± STD, Lung-2 [1]: 2.56 ± 1.82 SUV | SUV ± STD, Normal Thigh [1]: 0.31 ± 0.18 SUV | SUV ± STD, Skin [1]: 1.46 ± 0.41 SUV | SUV ± STD, Spleen [1]: 0.73 ± 0.03 SUV | SUV ± STD, Stomach [1]: 0.46 ± 0.07 SUV | SUV ± STD, Adipose (n = 4, 24 h post infection): 1.13 ± 0.34 SUV | SUV ± STD, Bladder (n = 4, 24 h post infection): 4.04 ± 5.22 SUV | SUV ± STD, Blood (n = 4, 24 h post infection): 2.75 ± 0.39 SUV | SUV ± STD, Bone (n = 4, 24 h post infection): 2.65 ± 1.75 SUV | SUV ± STD, Brain (n = 4, 24 h post infection): 0.11 ± 0.02 SUV | SUV ± STD, Cecum (n = 4, 24 h post infection): 1.59 ± 0.35 SUV | SUV ± STD, Eye (n = 4, 24 h post infection): 1.39 ± 1.17 SUV | SUV ± STD, Feces (n = 4, 24 h post infection): 0.71 ± 0.24 SUV | SUV ± STD, Gut (n = 4, 24 h post infection): 1.72 ± 0.31 SUV | SUV ± STD, Heart (n = 4, 24 h post infection): 1.04 ± 0.28 SUV | SUV ± STD, Kidney-1 (n = 4, 24 h post infection): 1.69 ± 0.66 SUV | SUV ± STD, Kidney-2 (n = 4, 24 h post infection): 1.44 ± 0.37 SUV | SUV ± STD, Liver (n = 4, 24 h post infection): 1.89 ± 0.47 SUV | SUV ± STD, Lung-1 (n = 4, 24 h post infection): 1.52 ± 0.29 SUV | SUV ± STD, Lung-2 (n = 4, 24 h post infection): 1.46 ± 0.51 SUV | SUV ± STD, Normal Thigh (n = 4, 24 h post infection): 0.33 ± 0.16 SUV | SUV ± STD, Skin (n = 4, 24 h post infection): 1.08 ± 0.42 SUV | SUV ± STD, Spleen (n = 4, 24 h post infection): 1.75 ± 0.56 SUV | SUV ± STD, Stomach (n = 4, 24 h post infection): 0.34 ± 0.13 SUV
